Measurements reported in US20100272711A1, “COMPOSITIONS AND METHODS FOR THE TREATMENT AND PREVENTION OF CARDIOVASCULAR DISEASES” (THOMAS JEFFERSON UNIVERSITY, priority 2007, published 2010).

Experiments:
[1] = tested on: animal models of ischemia/reperfusion injury; conditions: with a sodium-hydrogen exchanger inhibitor at reperfusion; or just before reperfusion in animal models; cited from earlier work
[2] = tested on: wild-type and TNF 1.6 mice; test: Left ventricular hemodynamics: chronotropic and functional responsiveness to adenosine analogue or AR agonists; type: in vivo, mouse
Method: FIGS. 16A-16B show the cardiac response of wild type (WT) and TNF 1.6 transgenic mice to an adenosine analogue or AR agonists. Under anesthetization, a 1.4 F micromanometer catheter (Millar Instruments) was inserted into the left ventricle through the right carotid artery. Chronotropic and functional responsiveness to adenosine analogue or AR agonists were recorded. […] Values are mean±SEM (n=5). *P<0.05 vs. age-matched WT. The graph measured the slope (in vivo chronotropic responsiveness) from baseline to 10 minutes after drug administration in wild-type and TNF 1.6 mice. Values were mean±SEM (n=5) and compared using ANOVA General Linear Model with repeated measures. *P<0.05 vs. age-matched WT in slope change. The graph in FIG. 16B measured the slope (arterial pressure or cardiac contractility) from baseline to 10 minutes after drug administration in wild-type and TNF1.6 mice. Values were mean±SEM (n=5) and compared using ANOVA General Linear Model with repeated measures. *P<0.05 vs. age-matched WT in slope change. Left Ventricular Hemodynamics Measurement. After anesthetization with 2.5% Avertin (10 μl/g body weight, IP, Aldrich Chemical Co), mice were placed in the supine position. A 1.4 F micromanometer catheter (Millar Instruments) was inserted into the left ventricle through the right carotid artery.^64,65 Left ventricular pressure and heart rate were then recorded at baseline and 10 minutes after injection of CPA (0.1 mg/kg body weight, IP, Sigma-Aldrich Co). A1 receptor-specific functional response. To determine whether the changes in A1-AR levels had functional significance in TNF 1.6 mice, the inventors determined the chronotropic response to the selective A1-AR agonist, 2-chloro-N^6-cyclopentanyladenosine (CPA).

WT mice = test: Effect of DOX diet on heart size and function of wild type mice; type: in vivo, mouse; conditions: 300 mg/kg diet; 12-week-old mice; FIGS. 9 and 10
Method: 7-10 12-weeks old mice from each group were measured. No significance was detected at p-value setting of P<0.05.
Echocardiography were performed on 7-10 12-weeks-old male mice. No significance was detected at p-value setting of P<0.05.
Echocardiography and Electrocardiogram (ECG). Echocardiographic studies on A1-AR transgenic mice were performed using an ultrasonographic system (ACUSON Sequoia C256) as described.^34,35 […] Non-transgenic littermates served as controls and unless otherwise noted, all mice were male. Mice were anesthetized with 2.5% Avertin (10 μl/g body weight, IP, Aldrich Chemical Co) and placed in the supine position. A 14-MHz transducer was applied to the left hemithorax. Two-dimensional targeted M-mode imaging was obtained from the short-axis view at the level of the greatest left ventricular dimension at baseline. […] End diastole was determined at the maximal left ventricular diastolic dimension, and end systole was taken at the peak of posterior-wall motion. […] ECG was recorded for 2 minutes and analyzed using Char 5 software (Adinstruments). […]

[3] = tested on: cardiac A1-AR expression (tTA transactivation); test: Doxycycline-regulated A1-AR transgene expression (tet-off system) in A1-TG mice; type: in vivo, mouse
Source text: Transgenic mouse generation. The human A1-AR cDNA was cloned into a cardiac-specific and inducible controlled vector (TREMHC)^64 composed of a modified mouse α-myosin heavy chain minimal promoter fused with nucleotide binding sites for tetracyline transactivating factor (tTA).^33 A1-AR transgenic mice, engineered on a FVB background (PolyGene, Switzerland), were crossed with mice that expressed tTA in the heart (MHC-tTA) (FIG. 1A). In this “tet-off” inducible system, the stable tetracycline analog, doxycycline (DOX), inhibits tTA transactivation and was administered to mice at 300 mg/kg of mouse diet (Bio-Serv, NJ). Survival studies were performed using both male and female mice and found no statistical significant differences. Therefore, only male mice were used for subsequent studies. All protocols were approved by the Institutional Animal Care and Use Committee of Thomas Jefferson University.
Doxycyline-regulated A1-AR expression. The stable tetracycline analog, doxycycline (DOX), inhibits tTA transactivation. The inventors determined a minimal dose of DOX (300 mg/kg of mouse diets) that attenuated A1-AR expression, which, in turn prevented cardiomyopathy. […] To generate inducible A1-AR transgenic mice (A1-TGInd), DOX was removed when mice reached three-weeks of age. […] At six weeks of age, A1-AR protein expression in A1-TGCcon and A1-TGInd was identical (FIGS. 2B and C). […]

Structure (SMILES): CCNC(=O)[C@H]1CC(n2cnc3c(N[C@H](CC)Cc4sccc4Cl)ccnc32)[C@H](O)[C@@H]1O (relative stereo) [AMP 579, [1S-[1α,2β,3β,4α(S*)]]-4-[7-[[3-chloro-2-thienyl)methyl]propyl]amino]-3H-imidazo[4,5-b]pyridin-3-yl]-N-ethyl-2,3-dihydroxycyclopentanecarboxamide]
- cardioprotection [1]: cardioprotective

Structure (SMILES): OC[C@H]1O[C@@H](n2cnc3c(NC4CCCC4)nc(Cl)nc32)[C@H](O)[C@@H]1O [CPA, 2-chloro-N^6-cyclopentanyladenosine]
- arterial pressure and cardiac contractility after injection ([2]; baseline to 10 minutes after CPA injection, FIG. 16B): only slightly increased arterial pressure and cardiac contractility
- chronotropic response in TNF 1.6 mice compared with age- and gender-matched wild-type controls ([2]; baseline to 10 minutes after drug administration, n=5): far more robust decrease in heart rate
- heart rate (chronotropic response) ([2]; wild-type mice, baseline to 10 minutes after injection, CPA 0.1 mg/kg IP): effectively decreased heart rate

Structure (SMILES): C[C@H]1c2cccc(O)c2C(=O)C2=C(O)[C@]3(O)C(=O)C(C(N)=O)=C(O)[C@@H](N(C)C)[C@@H]3[C@@H](O)[C@@H]21 [DOX, doxycycline]
- WT mouse heart size or function (WT mice): did not affect WT mouse heart size or function
- minimal dose that attenuated A1-AR expression ([3]; in turn prevented cardiomyopathy): 300 mg/kg of mouse diets
- transgene suppressed ([3]; sub-optimum DOX dose): 80%
